Data as given in ChEMBL document CHEMBL5230155, “Recent contributions of quinolines to antimalarial and anticancer drug discovery research” (Eur J Med Chem, 2021).

Tests used:
NCI-H460 = assay: Antiproliferative activity against human NCI-H460 cells; format: functional, cell-based
HT-29 = assay: Antiproliferative activity against human HT-29 cells; format: functional, cell-based
PANC-1 = assay: Antiproliferative activity against human PANC-1 cells; format: functional, cell-based
A-375 = assay: Antiproliferative activity against human A-375 cells; format: functional, cell-based
HeLa [1] = assay: Cytotoxicity against human HeLa cells at 2.5 uM; format: functional
MCF7 [2] = assay: Antiproliferative activity against mitoxantrone resistant human MCF7 cells; format: functional, cell-based
MCF7 [3] = assay: Antiproliferative activity against human MCF7 cells; format: functional, cell-based; details: Homo sapiens, MCF7
A2780 [4] = assay: Antiproliferative activity against cisplatin resistant human A2780 cells; format: functional, cell-based
A2780 [5] = assay: Antiproliferative activity against human A2780 cells; format: functional, cell-based
[6] = Antiproliferative activity against HUVEC cells; format: toxicity, cell-based; details: human
HCT-116 = assay: Cytotoxicity against human HCT-116 cells; format: functional, cell-based
RPMI-8226 [7] = assay: Induction of apoptosis in human RPMI-8226 cells assessed as fold increase in caspase-3 level; format: functional
RPMI-8226 [8] = assay: Induction of apoptosis in human RPMI-8226 cells assessed as fold increase in cytochrome c level; format: functional
RPMI-8226 [9] = assay: Cytotoxicity against human RPMI-8226 cells; format: functional, cell-based
[10] = biological target: Alkaline phosphatase, germ cell type (Homo sapiens, UniProt P10696); assay: Inhibition of human germ cell alkaline phosphatase
Sequence of Alkaline phosphatase, germ cell type (P10696 whole entry): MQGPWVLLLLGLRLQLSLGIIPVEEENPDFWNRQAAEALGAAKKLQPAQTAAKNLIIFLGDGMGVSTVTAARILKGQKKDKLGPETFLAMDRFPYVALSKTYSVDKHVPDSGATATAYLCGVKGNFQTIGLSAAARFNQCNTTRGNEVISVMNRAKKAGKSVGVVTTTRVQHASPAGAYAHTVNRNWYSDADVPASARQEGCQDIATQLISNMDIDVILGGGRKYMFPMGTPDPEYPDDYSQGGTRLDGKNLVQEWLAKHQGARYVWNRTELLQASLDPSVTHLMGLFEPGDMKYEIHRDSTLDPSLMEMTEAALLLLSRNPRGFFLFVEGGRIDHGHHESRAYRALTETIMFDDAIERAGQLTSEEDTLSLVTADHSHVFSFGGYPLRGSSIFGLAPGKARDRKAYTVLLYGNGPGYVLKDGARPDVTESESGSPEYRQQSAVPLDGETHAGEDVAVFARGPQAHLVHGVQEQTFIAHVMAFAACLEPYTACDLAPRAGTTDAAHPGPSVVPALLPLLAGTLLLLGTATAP

[11] = Inhibition of PI3K (unknown origin); set-up: species or system Homo sapiens
Plasmodium berghei [12] = assay: Antimalarial activity against Plasmodium berghei ANKA infected in mouse assessed increase in survival time (reference value: 6.8 day); format: functional
Hemozoin [13] = assay: Inhibition of beta-hematin formation
MIA PaCa-2 = assay: Antiproliferative activity against human MIA PaCa-2 cells; format: functional, cell-based
Hep 3B2 = assay: Cytotoxicity against human Hep3B cells assessed as relative value at 15 uM after 48 hrs by MTS method; format: functional
[14] = biological target: Phosphatidylinositol 4,5-bisphosphate 3-kinase catalytic subunit gamma isoform (Homo sapiens, UniProt P48736); assay: Inhibition of PI3K gamma (unknown origin)
Sequence of Phosphatidylinositol 4,5-bisphosphate 3-kinase catalytic subunit gamma isoform (P48736 whole entry, canonical isoform): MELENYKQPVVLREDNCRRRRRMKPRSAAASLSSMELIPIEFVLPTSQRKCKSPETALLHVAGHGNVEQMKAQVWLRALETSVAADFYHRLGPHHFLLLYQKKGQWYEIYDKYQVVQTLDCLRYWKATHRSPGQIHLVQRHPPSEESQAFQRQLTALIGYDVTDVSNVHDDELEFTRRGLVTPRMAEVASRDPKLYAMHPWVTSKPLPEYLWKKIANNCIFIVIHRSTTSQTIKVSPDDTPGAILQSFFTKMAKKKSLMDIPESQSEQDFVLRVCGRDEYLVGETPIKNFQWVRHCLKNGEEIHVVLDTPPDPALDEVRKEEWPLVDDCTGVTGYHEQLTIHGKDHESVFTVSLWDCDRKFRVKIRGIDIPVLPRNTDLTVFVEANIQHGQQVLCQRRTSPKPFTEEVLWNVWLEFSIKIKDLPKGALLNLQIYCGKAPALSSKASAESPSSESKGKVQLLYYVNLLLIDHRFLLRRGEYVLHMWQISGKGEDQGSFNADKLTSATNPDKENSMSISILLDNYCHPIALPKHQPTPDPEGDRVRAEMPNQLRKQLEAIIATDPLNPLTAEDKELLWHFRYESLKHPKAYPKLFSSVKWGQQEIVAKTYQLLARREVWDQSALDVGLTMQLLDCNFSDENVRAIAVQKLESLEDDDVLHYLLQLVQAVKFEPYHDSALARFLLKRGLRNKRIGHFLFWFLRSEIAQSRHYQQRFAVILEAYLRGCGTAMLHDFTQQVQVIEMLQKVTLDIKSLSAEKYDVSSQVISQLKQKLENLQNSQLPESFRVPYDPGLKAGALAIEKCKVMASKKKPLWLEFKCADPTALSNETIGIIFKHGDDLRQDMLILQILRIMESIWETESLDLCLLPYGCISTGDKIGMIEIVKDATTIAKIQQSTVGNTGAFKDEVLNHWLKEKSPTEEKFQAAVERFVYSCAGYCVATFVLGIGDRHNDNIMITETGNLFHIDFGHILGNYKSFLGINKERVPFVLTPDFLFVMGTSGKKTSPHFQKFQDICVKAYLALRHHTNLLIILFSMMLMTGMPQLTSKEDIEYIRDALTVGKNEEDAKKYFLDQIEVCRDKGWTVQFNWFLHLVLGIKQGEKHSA

K562 = assay: Cytotoxicity against human K562 cells; format: functional, cell-based
A549 = assay: Cytotoxicity against human A549 cells; format: functional, cell-based
Plasmodium berghei [15] = assay: Antiplasmodial activity against Plasmodium berghei infected in mouse assessed as increase in mean survival time at 100 mg/kg, po administered for 3 days (reference value: 7.6 day); format: functional; details: time 3 day
Plasmodium berghei [16] = assay: Antiplasmodial activity against Plasmodium berghei ANKA infected in mouse assessed as reduction in parasitaemia at 20 mg/kg/day, ip administered for 4 days; format: functional; set-up: scale not given: the % may be the effect or the level left; details: time 4 day
Plasmodium berghei [17] = assay: Antimalarial activity against Plasmodium berghei ANKA infected in mouse assessed increase in survival time at 20 mg/kg/day, ip for 4 days; format: functional; details: time 4 day
Hemozoin [18] = assay: Inhibition of beta-hematin formation relative to control; details: concentration not given here
Plasmodium falciparum [19] = assay: Antimalarial activity against Plasmodium falciparum 3D7; format: functional, organism-based
Plasmodium berghei [20] = assay: Antiplasmodial activity against Plasmodium berghei infected in mouse assessed as reduction in parasitaemia at 200 mg/kg/day, ip administered for 4 days; format: functional; set-up: scale not given: the % may be the effect or the level left; details: time 4 day
[21] = Cytotoxicity against african green monkey Vero cells; format: toxicity, cell-based; details: African green monkey (Chlorocebus sabaeus)
[22] = Selectivity index, ratio of IC50 for African green monkey Vero cells to IC50 for CQ sensitive Plasmodium falciparum 3D7; format: toxicity; details: read-out: Ratio IC50
Plasmodium falciparum [23] = assay: Antimalarial activity against CQ-sensitive Plasmodium falciparum 3D7; format: functional, organism-based
Plasmodium falciparum [24] = assay: Antimalarial activity against CQ-resistant Plasmodium falciparum RKL-9; format: functional, organism-based
[25] = biological target: Hepatocyte growth factor receptor (Homo sapiens, UniProt P08581); assay: Inhibition of c-Met (unknown origin)
Sequence of Hepatocyte growth factor receptor (P08581 whole entry): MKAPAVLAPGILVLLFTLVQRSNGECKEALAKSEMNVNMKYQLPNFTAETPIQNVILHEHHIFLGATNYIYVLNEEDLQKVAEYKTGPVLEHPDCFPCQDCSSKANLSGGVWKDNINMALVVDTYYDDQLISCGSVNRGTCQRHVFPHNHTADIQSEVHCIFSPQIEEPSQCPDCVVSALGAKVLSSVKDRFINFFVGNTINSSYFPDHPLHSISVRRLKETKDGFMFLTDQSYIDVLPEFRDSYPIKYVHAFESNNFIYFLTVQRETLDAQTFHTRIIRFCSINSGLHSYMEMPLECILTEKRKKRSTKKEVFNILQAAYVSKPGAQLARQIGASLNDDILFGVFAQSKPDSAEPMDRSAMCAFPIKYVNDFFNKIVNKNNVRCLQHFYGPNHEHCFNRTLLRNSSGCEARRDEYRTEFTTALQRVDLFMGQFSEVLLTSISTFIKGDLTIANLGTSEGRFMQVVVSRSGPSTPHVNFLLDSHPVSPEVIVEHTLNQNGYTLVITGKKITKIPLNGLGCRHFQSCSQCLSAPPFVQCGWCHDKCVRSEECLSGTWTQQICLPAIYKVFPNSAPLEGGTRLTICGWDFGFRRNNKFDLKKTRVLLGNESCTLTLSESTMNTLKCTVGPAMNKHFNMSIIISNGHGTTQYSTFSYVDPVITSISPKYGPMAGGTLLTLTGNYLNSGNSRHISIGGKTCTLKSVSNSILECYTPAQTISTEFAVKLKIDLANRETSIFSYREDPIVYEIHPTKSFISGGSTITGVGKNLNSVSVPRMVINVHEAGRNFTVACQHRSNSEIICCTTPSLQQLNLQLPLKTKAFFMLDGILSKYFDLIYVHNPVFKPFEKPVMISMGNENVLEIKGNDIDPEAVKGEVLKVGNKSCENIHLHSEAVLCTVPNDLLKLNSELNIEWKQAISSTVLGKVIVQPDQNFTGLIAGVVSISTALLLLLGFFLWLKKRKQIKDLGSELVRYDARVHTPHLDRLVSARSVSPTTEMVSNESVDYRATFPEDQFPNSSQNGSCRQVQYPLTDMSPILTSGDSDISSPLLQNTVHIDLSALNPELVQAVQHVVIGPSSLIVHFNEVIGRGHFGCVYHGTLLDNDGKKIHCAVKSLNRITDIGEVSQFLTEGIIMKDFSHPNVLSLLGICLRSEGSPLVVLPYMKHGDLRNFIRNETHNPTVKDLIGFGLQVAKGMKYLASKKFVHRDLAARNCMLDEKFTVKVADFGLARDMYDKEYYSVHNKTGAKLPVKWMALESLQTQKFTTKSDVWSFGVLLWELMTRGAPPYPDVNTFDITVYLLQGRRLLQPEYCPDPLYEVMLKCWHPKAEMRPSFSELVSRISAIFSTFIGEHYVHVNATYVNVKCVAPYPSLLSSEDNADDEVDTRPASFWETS

Breast carcinoma cell = assay: Antiproliferative activity against human breast cancer cells; format: functional
Leukemia cell = assay: Antiproliferative activity against human Leukemia cells; format: functional
[26] = Antiproliferative activity against human CNS cells; format: functional; details: CNS cell
HeLa [27] = assay: Antiproliferative activity against human HeLa cells; format: functional, cell-based
MDA-MB-231 = assay: Antiproliferative activity against human MDA-MB-231 cells; format: functional, cell-based
KG-1a = assay: Antiproliferative activity against human KG-1a cells; format: functional, cell-based
PC-3 = assay: Antiproliferative activity against human PC-3 cells; format: functional, cell-based

SMILES: COc1nc2ccc(C)cc2cc1Cc1cc(-c2ccccc2)n[nH]c1=O
- IC50 (NCI-H460): 2200 nM
- IC50 (HT-29): 2200 nM
- IC50 (PANC-1): 2200 nM
- IC50 (A-375): 2200 nM

SMILES: COc1cc2nc(N3CCCN(C)CC3)nc(NC3CCN(Cc4ccccc4)CC3)c2cc1OC
- Activity (HeLa [1]): 63%

SMILES: COc1ccc(Nc2cc(/C=C/c3ccc([N+](=O)[O-])cc3)nc3cc(OC)c(OC)c(OC)c23)cc1OC
- IC50 (MCF7 [2]): 1130 nM
- IC50 (MCF7 [3]): 1130 nM
- IC50 (A2780 [4]): 1130 nM
- IC50 (A2780 [5]): 1130 nM
- IC50 [6]: 7820 nM

SMILES: COc1nc2ccccc2cc1/C=[N+](\[O-])c1ccccc1
- IC50 (HCT-116): 450 nM
- fold change (FC) (RPMI-8226 [7]): 12
- fold change (FC) (RPMI-8226 [8]): 4
- IC50 (RPMI-8226 [9]): 450 nM

SMILES: COc1cc2c(C(=O)Nc3nc4ccccc4s3)cc(O)nc2cc1Cl
- IC50 [10]: < 75 nM

SMILES: COC[C@H]1OC(=O)c2coc3c2[C@@]1(C)C1=C(C3=O)[C@@H]2CCC(=O)[C@@]2(C)C[C@H]1OC(C)=O [WORTMANNIN]
- IC50 [11]: 750 nM

SMILES: COC(=O)[C@@H](NC(=O)CSc1ccnc2cc(Cl)ccc12)C(C)C
- Time (Plasmodium berghei [12]): 24.6 days
- inhibition (Hemozoin [13]; concentration not given here): 61.1%

SMILES: COc1nc2ccccc2cc1/C=C1/C=C(c2ccccc2)NC1=O
- IC50 (NCI-H460): 1900 nM
- IC50 (HT-29): 1900 nM
- IC50 (PANC-1): 1900 nM
- IC50 (MIA PaCa-2): 1900 nM
- IC50 (A-375): 1900 nM

SMILES: Cc1ccc2cccc(OS(=O)(=O)c3ccc(CBr)cc3)c2n1
- fold change (FC) (Hep 3B2): 0.25

SMILES: Cc1ccc(-c2cc(C(=O)N/N=C(\C=C\c3ccc(Cl)cc3)c3ccc(N)cc3)c3ccccc3n2)cc1
- IC50 [14]: 197 nM
- IC50 (K562): 1910 nM
- IC50 (A549): 1910 nM

SMILES: COc1ccc(-c2cc(C(=O)N/N=C(\C=C\c3ccc(Cl)cc3)c3ccc(N)cc3)c3ccccc3n2)cc1
- IC50 [14]: 52 nM
- IC50 (K562): 1910 nM
- IC50 (A549): 1910 nM

SMILES: CCN(CC)CCCC(C)Nc1ccnc2cc(Cl)ccc12 (stereo not given) [CHLOROQUINE]
- Time (Plasmodium berghei [15]): 26.2 days
- Activity (Plasmodium berghei [16]): 0.32%
- IC50 (Hemozoin [13]): 890000 nM
- Time (Plasmodium berghei [17]): 24.99 days
- inhibition (Hemozoin [18]): 52.1%
- EC50 (Plasmodium falciparum [19]): 165 nM
- Activity (Plasmodium berghei [20]): 100%

SMILES: O=C(Cn1cc(COc2ccc(Br)cc2)nn1)NCCNc1ccnc2cc(Cl)ccc12
- IC50 [21]: > 5000 nM
- selectivity ratio [22]: 714
- IC50 (Plasmodium falciparum [23]): 38.8 nM
- IC50 (Plasmodium falciparum [24]): 2.94 nM

SMILES: COc1cc2nccc(Oc3ccc(NC(=O)C4(C(=O)Nc5ccc(F)cc5)CC4)cc3)c2cc1OC(=O)c1ccc(N)cc1
- IC50 [25]: 19 nM
- GI50 (Breast carcinoma cell): 290 nM
- GI50 (Leukemia cell): 290 nM
- GI50 [26]: 290 nM

SMILES: CNS(=O)(=O)Nc1nccc(Cc2c(C)c3ccc(Oc4ncccn4)cc3oc2=O)c1F [AVUTOMETINIB]
- GI50 (A549): 3230 nM

SMILES: CC(=O)c1cccc(C#Cc2c(C3CC3)nc3ccccc3c2-c2ccc(F)cc2)c1
- IC50 [11]: 450 nM

SMILES: CSc1nc2ccccc2cc1/C=[N+](\[O-])c1ccccc1
- IC50 (HCT-116): 450 nM
- fold change (FC) (RPMI-8226 [7]): 12
- fold change (FC) (RPMI-8226 [8]): 4
- IC50 (RPMI-8226 [9]): 450 nM

SMILES: COc1cc2nccc(Oc3ccc(NC(=O)C4(C(=O)Nc5ccc(F)cc5)CC4)cc3)c2cc1Oc1ccc(N)cn1
- IC50 [25]: 19 nM
- GI50 (Breast carcinoma cell): 290 nM
- GI50 (Leukemia cell): 290 nM
- GI50 [26]: 290 nM

SMILES: Cc1ccc(Nc2nnc(-c3cc(-c4ccc(Br)cc4)nc4ccccc34)o2)cc1
- IC50 (HeLa [27]): 50 nM
- IC50 (MDA-MB-231): 540 nM
- IC50 (KG-1a): 1210 nM

SMILES: CCOc1ccc(Nc2cc(C)nc3ccc(Cl)cc23)cc1
- Activity (HeLa [1]): 8%

SMILES: COc1ccc2nc(Cl)c(/C=C/C(=O)c3ccc(OC)c(OC)c3OC)cc2c1
- inhibition (Hemozoin [18]): 61.3%

SMILES: COc1ccc(/C=C/c2cc(Nc3cc(OC)c(OC)c(OC)c3)c3c(OC)c(OC)c(OC)cc3n2)cc1OC
- IC50 (MCF7 [2]): 500 nM
- IC50 (MCF7 [3]): 500 nM
- IC50 (A2780 [4]): 500 nM
- IC50 (A2780 [5]): 500 nM
- IC50 [6]: 7820 nM

SMILES: Cc1cc2c(C(=O)Nc3nc4ccccc4s3)cc(O)nc2cc1Cl
- IC50 (PC-3): 18 nM
- IC50 [10]: < 75 nM

SMILES: Cc1ccc2nc(SCc3ccccc3)c(/C=[N+](\[O-])c3ccccc3)cc2c1
- IC50 (HCT-116): 450 nM
- fold change (FC) (RPMI-8226 [7]): 12
- fold change (FC) (RPMI-8226 [8]): 4
- IC50 (RPMI-8226 [9]): 450 nM

SMILES: O=C(Cn1cc(COc2ccc(Br)cc2)nn1)NCCCNc1ccnc2cc(Cl)ccc12
- IC50 [21]: > 5000 nM
- selectivity ratio [22]: 714
- IC50 (Plasmodium falciparum [23]): 38.8 nM
- IC50 (Plasmodium falciparum [24]): 16 nM
